These results are taken from patent US12441727B2, “Tricyclic compounds as inhibitors of KRAS” (Incyte Corporation, priority 2021, dated 2025).

Molecules are shown by their SMILES. Like-named read-outs stand apart in the source and are kept apart here. Some results are limits rather than exact numbers.

Test [1] has as its system KRAS_G12C pERK in MIA PaCa-2 cells. The test can be described thus: Whole Blood pERK1/2 HTRF assay (KRAS_G12C WB pERK assay). Type of test: cell-based, human. The conditions noted are these: compound in whole blood, 4 hours, read-out: G12C_WB_pERK. How it is done:
MIA PaCa-2 cells (KRAS G12C; ATCC® CRL-1420), HPAF-II (KRAS G12D; ATCC® CRL-1997) and YAPC (KRAS G12V; DSMZ ACC382) are maintained in RPMI 1640 with 10% FBS (Gibco/Life Technologies). For MIA PaCa-2 assay, cells are seeded into 96 well tissue culture plates (Corning #3596) at 25000 cells per well in 100 uL media and cultured for 2 days at 37° C., 5% CO2 before the assay. For HPAF-II and YAPC assay, cells are seeded in 96 well tissue culture plates at 50000 cells per well in 100 uL media and cultured for 1 day before the assay. Whole Blood are added to the 1 uL dots of compounds (prepared in DMSO) in 96 well plates and mixed gently by pipetting up and down so that the concentration of the compound in blood is 1× of desired concentration, in 0.5% DMSO. The media is aspirated from the cells and 50 uL per well of whole blood with test compound is added and incubated for 4 hours for MIA PaCa and YAPC assay; or 2 hours for HPAF-II assay, respectively at 37° C., 5% CO2. After dumping the blood, the plates are gently washed twice by adding PBS to the side of the wells and dumping the PBS from the plate onto a paper towel, tapping the plate to drain well. Fifty ul/well of 1× lysis buffer #1 (Cisbio) with blocking reagent (Cisbio) and Benzonase nuclease (Sigma Cat #E1014-5KU, 1:10000 final concentration) is then added and incubated at room temperature for 30 minutes with shaking (250 rpm). Following lysis, 16 uL of lysate is transferred into 384-well Greiner small volume white plate using an Assist Plus (Integra Biosciences, NH). Four uL of 1:1 mixture of anti Phospho-ERK 1/2 d2 and anti Phospho-ERK 1/2 Cryptate (Cisbio) is added to the wells using the Assist Plus and incubated at room temperature overnight in the dark. Plates are read on the Pherastar plate reader at 665 nm and 620 nm wavelengths. Data are analyzed in Genedata Screener using SmartFit for IC50 values.

The subject of test [2] is KRAS_G12C pERK. The test can be described thus: Cellular pERK HTRF assay (KRAS_G12C pERK assay). It is filed as cell-based, human. The conditions noted are these: KRAS G12C cells, 4 hours incubation with compound, read-out: G12C_pERK. As for the experimental part: MIA PaCa-2 (KRAS G12C; ATCC® CRL-1420), NCI-H358 (KRAS G12C; ATCC® CRL-5807), A427 (KRAS G12D; ATCC® HTB53), HPAFII (KRAS G12D; ATCC® CRL-1997), YAPC (KRAS G12V; DSMZ ACC382), SW480 (KRAS G12V; ATCC® CRL-228) and NCI-H838 (KRAS WT; ATCC® CRL-5844) cells are purchased from ATCC and maintained in RPMI 1640 media supplemented with 10% FBS (Gibco/Life Technologies). The cells are plated at 5000 cells per well (8 uL) into Greiner 384-well low volume, flat-bottom, and tissue culture treated white plates and incubated overnight at […], 5% CO2. The next morning, test compound stock solutions are diluted in media at 3× the final concentration and 4 uL are added to the cells, with a final concentration of 0.1% of DMSO. The cells are incubated with the test compounds for 4 hours (G12C and G12V) or 2 hrs (G12D) at 37° C., 5% CO2. Four uL of 4× lysis buffer with blocking reagent (Cisbio) are added to each well and plates are rotated gently (300 rpm) for 30 minutes at room temperature. Four uL per well of Cisbio anti Phospho-ERK 1/2 d2 is mixed with anti Phospho-ERK 1/2 Cryptate (1:1), and added to each well, incubated overnight in the dark at room temperature. Plates are read on the Pherastar plate reader at 665 nm and 620 nm wavelengths. Data are analyzed in Genedata Screener using SmartFit for IC50 values.
In general terms: In TR-FRET formats the signal depends on donor and acceptor labels being close together.

Test [3] addresses KRAS G12C (Homo sapiens, UniProt P01116, G12C). The test can be described thus: GDP-GTP exchange assay (KRAS_G12C exchange assay). It is filed as biochemical. To be noted: bodipy-loaded KRAS G12C 2.5 nM, SOS1 150 nM, 2 hours pre-incubation with inhibitor; read-out: G12C_exchange. As for the experimental part:
The inhibitor potency of the exemplified compounds was determined in a fluorescence based guanine nucleotide exchange assay, which measures the exchange of bodipy-GDP (fluorescently labeled GDP) for GppNHp (Non-hydrolyzable GTP analog) to generate the active state of KRAS in the presence of SOS1 (guanine nucleotide exchange factor). Inhibitors were serially diluted in DMSO and a volume of 0.1 μL was transferred to the wells of a black low volume 384-well plate. 5 μL/well volume of bodipy-loaded KRAS G12C diluted to 5 nM in assay buffer (25 mM Hepes pH 7.5, 50 mM NaCl, 10 mM MgCl2 and 0.01% Brij-35) was added to the plate and pre-incubated with inhibitor for 2 hours at ambient temperature. Appropriate controls (enzyme with no inhibitor or with a G12C inhibitor (AMG-510)) were included on the plate. The exchange was initiated by the addition of a 5 μL/well volume containing 1 mM GppNHp and 300 nM SOS1 in assay buffer. The 10 μL/well reaction concentration of the bodipy-loaded KRAS G12C, GppNHp, and SOS1 were 2.5 nM, 500 uM, and 150 nM, respectively. The reaction plates were incubated at ambient temperature for 2 hours, a time estimated for complete GDP-GTP exchange in the absence of inhibitor. For the KRAS G12D and G12V mutants, similar guanine nucleotide exchange assays were used with 2.5 nM as final concentration for the bodipy loaded KRAS proteins and with 4 hours and 3 hours incubation after adding GppNHp-SOS1 mixture for G12D and G12V respectively. A cyclic peptide described to selectively bind G12D mutant (Sakamoto et al., BBRC 484.3 (2017), 605-611) or internal compounds with confirmed binding were used as positive controls in the assay plates. Fluorescence intensities were measured on a PheraStar plate reader instrument (BMG Labtech) with excitation at 485 nm and emission at 520 nm.
Either GraphPad prism or Genedata Screener SmartFit was used to analyze the data. The IC50 values were derived by fitting the data to a four parameter logistic equation producing a sigmoidal dose-response curve with a variable Hill coefficient.

Chain of KRAS G12C (P01116 1-188 isoform P01116-2 G12C): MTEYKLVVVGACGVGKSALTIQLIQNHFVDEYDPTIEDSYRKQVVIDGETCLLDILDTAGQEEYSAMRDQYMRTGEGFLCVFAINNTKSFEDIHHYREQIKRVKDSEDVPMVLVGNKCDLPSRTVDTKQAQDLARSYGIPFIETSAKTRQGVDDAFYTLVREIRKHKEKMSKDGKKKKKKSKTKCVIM

For `C=C(F)C(=O)N1CC[C@H](n2nnc3c(N4CC(C)(N(C)C)C4)nc4c(F)c(-c5cccc6cccc(C#N)c56)c(C)cc4c32)C[C@H]1CC#N` (single isomer, unassigned) [Example 17a], the IC50 in test [1] (Homo sapiens) was 50 to 100 nM; in test [2] (Homo sapiens, 4 h), at most 50 nM; in test [3] it was at most 50 nM.

As for `C=C(F)C(=O)N1CC[C@H](n2nnc3c(O[C@@H](C)[C@@H]4CCCN4C)nc4c(F)c(-c5c(C)ncc6ccccc56)c(C)cc4c32)C[C@H]1CC#N` (single isomer, unassigned) [Example 23b], the IC50 in test [1] (Homo sapiens) was at most 50 nM; in test [2] (Homo sapiens, 4 h), at most 50 nM; in test [3] it was at most 50 nM.

`COC/C=C/C(=O)N1CC[C@H](n2nnc3c(O[C@@H](C)[C@@H]4CCCN4C)nc4c(F)c(-c5c(C)ncc6ccccc56)c(C)cc4c32)C[C@H]1CC#N` (single isomer, unassigned) [Example 24b]: the IC50 in test [1] (Homo sapiens), in test [2] and in test [3] was at most 50 nM in each case.

On to `C=C(F)C(=O)N1CC[C@H](n2nnc3c(O[C@@H](C)[C@@H]4CCCN4C)nc4c(F)c(-c5c(F)ccc6ccc(C)nc56)c(C)cc4c32)C[C@H]1CC#N` (single isomer, unassigned) [Example 25a], for which the IC50 was 50 to 100 nM in test [1] (Homo sapiens); at most 50 nM in test [2] (Homo sapiens, 4 h); at most 50 nM in test [3].

In the case of `COC/C=C/C(=O)N1CC[C@H](n2nnc3c(O[C@@H](C)[C@@H]4CCCN4C)nc4c(F)c(-c5cnc(C)c6ccccc56)c(C)cc4c32)C[C@H]1CC#N` (single isomer, unassigned) [Example 26a], the IC50 in test [1] (Homo sapiens) is 50 to 100 nM; in test [2] (Homo sapiens, 4 h) it was at most 50 nM; in test [3], at most 50 nM.

With `C=C(F)C(=O)N1CC[C@H](n2nnc3c(O[C@@H](C)[C@@H]4CCCN4C)nc4c(F)c(-c5c(F)ccc6cccnc56)c(C)cc4c32)C[C@H]1CC#N` (single isomer, unassigned) [Example 27a], the IC50 was 50 to 100 nM in test [1] (Homo sapiens); at most 50 nM in test [2] (Homo sapiens, 4 h); at most 50 nM in test [3].

For `C=C(F)C(=O)N1CC[C@H](n2nnc3c(O[C@@H](C)[C@@H]4CCCN4C)nc4c(F)c(-c5c(F)ccc6cccnc56)c(C)cc4c32)C[C@H]1CC#N` (single isomer, unassigned) [Example 27b], the IC50 is 50 to 100 nM in test [1], at most 50 nM in test [2] and at most 50 nM in test [3].

As for `COC/C=C/C(=O)N1CC[C@H](n2nnc3c(N4CC(C)(N(C)C)C4)nc4c(F)c(-c5cccc(C)c5C)c(C)cc4c32)C[C@H]1CC#N` [Example 6, 2-((2S,4S)-4-(4-(3-(dimethylamino)-3-methylazetidin-1-yl)-7-(2,3-dimethylphenyl)-6-fluoro-8-methyl-1H-[1,2,3]triazolo[4,5-c]quinolin-1-yl)-1-((E)-4-methoxybut-2-enoyl)piperidin-2-yl)acetonitrile], the IC50 in test [1] (Homo sapiens) is 100 to 1000 nM; in test [2] (Homo sapiens, 4 h) it was at most 50 nM; in test [3] it was at most 50 nM.

On to `COC/C=C/C(=O)N1CC[C@H](n2nnc3c(O[C@@H](C)[C@@H]4CCCN4C)nc4c(F)c(-c5nn(C)c6ccccc56)c(C)cc4c32)C[C@H]1CC#N` [Example 9, 2-((2S,4S)-4-(6-fluoro-8-methyl-7-(1-methyl-1H-indazol-3-yl)-4-((S)-1-((S)-1-methylpyrrolidin-2-yl)ethoxy)-1H-[1,2,3]triazolo[4,5-c]quinolin-1-yl)-1-((E)-4-methoxybut-2-enoyl)piperidin-2-yl)acetonitrile], for which the IC50 in test [1] (Homo sapiens) is at most 50 nM; in test [2] (Homo sapiens, 4 h), at most 50 nM; in test [3], at most 50 nM.

In the case of `C=C(F)C(=O)N1CC[C@H](n2nnc3c(O[C@@H](C)[C@@H]4CCCN4C)nc4c(F)c(-c5ncc(F)c6ccccc56)c(C)cc4c32)C[C@H]1CC#N` [Example 22, 2-((2S,4S)-4-(6-fluoro-7-(4-fluoroisoquinolin-1-yl)-8-methyl-4-((S)-1-((S)-1-methylpyrrolidin-2-yl)ethoxy)-1H-[1,2,3]triazolo[4,5-c]quinolin-1-yl)-1-(2-fluoroacryloyl)piperidin-2-yl)acetonitrile], the IC50 in test [1] (Homo sapiens) was at most 50 nM; in test [2] (Homo sapiens, 4 h) it was at most 50 nM; in test [3] it was at most 50 nM.
